Experimental data as given in patent US20180271960A1, “METHOD TO TREAT CANCER USING ARGININE DELPETOR AND ORNITHINE DECARBOXYLASE (ODC) INHIBITOR” (Bio-Cancer Treatment International Ltd., priority 2015, published 2018).

Experiments:
[1] = tested on: HCC2935 lung adenocarcinoma cell line; assay: MTT assay, growth inhibition of HCC2935 cell line; assay type: cell-based; conditions: 72 h at 10 ng/μl only
Method: (§1) The inhibition ratio (IR) and the half maximal inhibitory concentration (IC50) values are determined by a MTT assay.

[2] = tested on: H1975 lung adenocarcinoma cell line; assay: MTT assay, growth inhibition of H1975 cell line; assay type: cell-based; conditions: 48 h and 72 h at 0.5 ng/μl and 10 ng/μl
Method: as §1

Substance: arginine deiminase [ADI, reference compound]
- growth inhibition effect (cell proliferation / toxicity) [1]: does not inhibit HCC2935 lung adenocarcinoma cell line proliferation
- growth inhibition effect (cell proliferation) [2]: does not inhibit H1975 lung adenocarcinoma cell line proliferation
